Assay results reported in patent publication US10239849B2 (Merck Sharp & Dohme Corp., priority 2015, dated 2019).

What was measured:
[1] = molecular target: T1, glutathione-S-transferase (GST) tagged LXRbeta LBD (ligand binding domain) (Homo sapiens, UniProt P55055); assay: LanthaScreen TR-FRET Liver X Receptor Coactivator Assay, LXR beta-LBD; format: biochemical; details: for Emax: efficacy in relation to reference dual agonist T1317, read-out: LXR beta activity at max dose (%) (Emax); for EC50: potency (Inflection Point) of co-activator recruitment, TR-FRET, read-out: LXR beta IP
T1 construct: purchased Invitrogen pv4658.pps
T1 sequence (P55055 222-460 limits assumed): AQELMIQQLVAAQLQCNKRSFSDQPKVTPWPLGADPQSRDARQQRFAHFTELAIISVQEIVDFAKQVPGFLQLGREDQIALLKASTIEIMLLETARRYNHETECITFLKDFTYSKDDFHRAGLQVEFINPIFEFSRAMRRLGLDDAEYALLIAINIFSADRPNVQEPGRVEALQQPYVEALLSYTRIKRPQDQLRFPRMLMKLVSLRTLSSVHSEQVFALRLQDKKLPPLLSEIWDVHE
How it was run: (§1)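 LXR alpha- or beta-LBD was added to test compounds, then a mix of fluorescein-labelled coactivator peptide and terbium anti-GST antibody. After room-temperature incubation, TR-FRET was read on a filter-based reader.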

[2] = molecular target: T2, glutathione-S-transferase (GST) tagged LXRalpha LBD (ligand binding domain) (Homo sapiens, UniProt Q13133); assay: LanthaScreen TR-FRET Liver X Receptor Coactivator Assay, LXR alpha-LBD; format: biochemical; details: for Emax: efficacy in relation to reference dual agonist T1317, read-out: LXR alpha activity at max dose (%) (Emax); for EC50: potency (Inflection Point) of co-activator recruitment, TR-FRET, read-out: LXR alpha IP
T2 construct: purchased Invitrogen pv4655
T2 sequence (Q13133 209-447 limits assumed): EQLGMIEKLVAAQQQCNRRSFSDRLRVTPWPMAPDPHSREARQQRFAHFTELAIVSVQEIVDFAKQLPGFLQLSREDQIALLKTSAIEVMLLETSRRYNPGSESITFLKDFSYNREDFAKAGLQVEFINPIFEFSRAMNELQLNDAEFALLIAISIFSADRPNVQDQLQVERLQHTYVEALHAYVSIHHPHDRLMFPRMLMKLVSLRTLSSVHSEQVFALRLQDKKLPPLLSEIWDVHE
How it was run: as §1

Row | Emax [1] [%] | EC50 [1] [nM] | Emax [2] [%] | EC50 [2] [nM] | SMILES
1 | 65 | 210 | 65 | 24600 | COc1ccc(COC(=O)N2CCN(c3ncc(-c4ccc(C(=O)N(C)C)c(Cl)c4)cc3C#N)CC2)cc1 [Example 3-8, 4-methoxybenzyl 4-{5-[3-chloro-4-(dimethylcarbamoyl)phenyl]-3-cyanopyridin-2-yl}piperazine-1-carboxylate]
2 | 98 | 43 | 36 | 4840 | CN(C)C(=O)c1ccc(-c2cnc(N3CCN(S(=O)(=O)c4c(F)cccc4F)CC3)c(C#N)c2)cc1Cl [Example 1-17, 2-chloro-4-(5-cyano-6-{4-[(2,6-difluorophenyl)sulfonyl]piperazin-1-yl}pyridin-3-yl)-N,N-dimethylbenzamide]
3 | 77 | 94 | 30 | 1260 | CN(C)C(=O)c1ccc(-c2cc(Cl)c(N3CCN(S(=O)(=O)c4c(Cl)cccc4Cl)CC3)c(Cl)c2)cc1Cl [Example 4-10, 3,3′,5′-trichloro-4′-{4-[(2,6-dichlorophenyl)sulfonyl]piperazin-1-yl}-N,N-dimethylbiphenyl-4-carboxamide]
4 | 127 | 11 | 60 | 1000 | CN(C)C(=O)c1ccc(-c2cnc(N3CCN(S(=O)(=O)c4ccccc4C(F)(F)F)CC3)c(C#N)c2)cc1Cl [Example 1-13, 2-chloro-4-[5-cyano-6-(4-{[2-(trifluoromethyl)phenyl]sulfonyl}piperazin-1-yl)pyridin-3-yl]-N,N-dimethylbenzamide]
5 | 65 | 259 | 20 | 1290 | CC(C)C(O)(C(=O)N1CCN(c2ccc(-c3ccc(C(=O)N(C)C)c(Cl)c3)cc2)CC1)C(F)(F)F (stereo not shown) [Example 4-18, 3-chloro-4′-{4-[2-hydroxy-3-methyl-2-(trifluoromethyl)butanoyl]piperazin-1-yl}-N,N-dimethylbiphenyl-4-carboxamide]

The next lines start with the compound.

Row | SMILES | Emax [1] [%] | EC50 [1] [nM] | Emax [2] [%] | EC50 [2] [nM]
6 | CN(C)C(=O)c1ccc(-c2cnc(N3CCN(C(=O)c4c(F)cccc4F)CC3)c(C#N)c2)cc1Cl [Example 2-1, 2-chloro-4-(5-cyano-6-{4-[(2,6-difluorophenyl)carbonyl]piperazin-1-yl}pyridin-3-yl)-N,N-dimethylbenzamide] | 40 | 212 | 23 | 8860
7 | CCc1cc(-c2cnc(N3CCN(C(=O)OC(C)(C)C)CC3)c(C#N)c2)ccc1C(=O)N(C)C [Example 8-17, tert-butyl 4-{3-cyano-5-[4-(dimethylcarbamoyl)-3-ethylphenyl]pyridin-2-yl}piperazine-1-carboxylate] | 71 | 424 | 41 | 7470
8 | CC(C)C(=O)C(=O)N1CCN(c2ncc(-c3cc(Cl)c(C(=O)N(C)C)c(Cl)c3)cc2C#N)CC1 [Example 7-2, 2,6-dichloro-4-{5-cyano-6-[4-(3-methyl-2-oxobutanoyl)piperazin-1-yl]pyridin-3-yl}1-N,N-dimethylbenzamide] | 88 | 32 | 30 | 2040
9 | CN(CCO)C(=O)c1ccc(-c2cnc(N3CCN(C(=O)OC(C)(C)C)CC3)c(C#N)c2)cc1Cl [Example 5-1, tert-butyl-4-(5-{3-chloro-4-[(2-hydroxyethyl)(methyl)carbamoyl]phenyl}-3-cyanopyridin-2-yl)piperazine-1-carboxylate] | 80 | 40 | 68 | 1260
10 | CC(C)(C)OC(=O)N1CCN(c2ncc(-c3ccc(C(=O)N4CC[C@@H](O)C4)c(Cl)c3)cc2C#N)CC1 [Example 5-12, tert-butyl 4-[5-(3-chloro-4-{[(3R)-3-hydroxypyrrolidin-1-yl]carbonyl}phenyl)-3-cyanopyridin-2-yl]piperazine-1-carboxylate] | 60 | 481 | 37 | 8440
